Results on seven molecules are retold here after article PMC12775819, “Optimizing PSMA-617-based inhibitors through charged linker modifications: Insights into structure-activity relationships” (Theranostics, 2026).

Non-standard residues stand in square brackets, D forms with d. Residues, ends and D or L forms follow the SMILES beside them. *: point of attachment. DOTA = O=C(O)CN1CCN(CC(=O)O)CCN(CC(=O)*)CCN(CC(=O)O)CC1; EuK = O=C(O)CC[C@H](NC(=O)N[C@@H](CCCCN*)C(=O)O)C(=O)O; 2Nal = N[C@@H](Cc1ccc2ccccc2c1)C(=O)O; Trx = NC[C@H]1CC[C@H](C(=O)O)CC1

Series [1] relates to PSMA-positive LNCaP cells. The series can be described thus: Surface binding and internalization of 68Ga-labeled compounds. It counts as cell-based, human. Conditions: for Internalization Block / Surface Binding Block / Internalization / Surface Binding: 30 nM, 45 min, 37 °C; for Internalization Block / Surface Binding Block: blocked with 2-PMPA 500 µM; for Internalization / Surface Binding: unblocked; for Specific Internalization / Specific Surface Binding: difference of unblocked and blocked values. How it is done: (§1) The PSMA-positive human cell line LNCaP (human lymph node carcinoma of the prostate; ATCC CRL-1740) was cultivated adherently at 37 °C and humidified 5% CO2 with RPMI-1640 (Thermo Fisher Scientific, Germany) supplemented with 10% fetal bovine serum (Sigma-Aldrich, Germany), 1% sodium pyruvate (Life Technologies, Germany) and 1% penicillin/[…] (Thermo Fisher Scientific, Germany). A mixture of trypsin/ethylenediaminetetraacetic acid (0.05% / 0.02%; Thermo Fisher Scientific, Germany) was used for cell harvesting (last authentication: April 2024).
Internalization assays were performed on poly-L-lysine coated 24-well cell culture plates. The day before the experiment, LNCaP cells (10^5 cells/well) were harvested and seeded to the wells. The cells were incubated with the ^68Ga-labeled compounds (250 µl, 30 nM, diluted in RPMI medium) for 45 min at 37 °C. […] The medium was then removed and the cells washed with ice-cold PBS buffer (3 × 1 ml). To remove surface bound compounds, ice-cold glycine buffer (2 × 0.5 ml, 50 mM, pH 2.8) was added to the wells and collected after 5 min in a combined fraction. After washing once with PBS (1 ml), NaOH (0.5 ml, 0.3 M) was added to the cells for lysation. Collected surface-bound, internalized fractions and standards from the stock solutions (25 µl) were measured in a γ-counter. Data was normalized and presented as percentage of the initially added radioactivity bound to 10^5 cells [%IA/10^5 cells].

The nature of series [2]: in vivo. Conditions: male, BALB/c nu/nu, mouse, iv, 500 pmol, total radioactivity.
The nature of series [3]: Partition coefficient (logD), n-octanol/PBS pH 7.4. It counts as physicochemical. Particulars: 68Ga-labeled compounds, mean ± SD; for logD: read-out: Partition Coefficient [logDoctanol/PBS]. Here is the method: To determine the lipophilicity expressed as distribution coefficient (logD), a two-phase system of n-octanol (500 µl) and phosphate buffered saline (PBS) (490 µl) at pH 7.4 was used (n = 4). Compounds were radiolabeled with [^68Ga]Ga^3+ and the mixture diluted to a concentration of 0.25 µM in PBS. 10 µl of the 0.25 µM dilution were added to the n-octanol / PBS mixture. After extensive mixing, the 2-phase system was centrifuged for 10 min at 14,000 rpm and 4 °C. Two samples from each phase (100 µl) were taken and measured in a γ-gamma counter (PerkinElmer, Waltham, USA). […] The data is presented as the mean value with the standard deviation (SD).

Series [4] concerns the target T1, PSMA (Homo sapiens, UniProt Q04609).
T1 construct: incubated with [^68Ga]Ga-PSMA-10 (0.8 nM) and LNCaP cells (10^5 cells/well) for 45 min at room temperature; host or cells: LNCaP (human prostate carcinoma lymph node metastasis)
The series can be described thus: Competitive cell binding (IC50) against [68Ga]Ga-PSMA-10 on LNCaP cells. Conditions: unlabeled precursors vs [68Ga]Ga-PSMA-10 (0.8 nM), 45 min, room temperature, ± SD. Here is the method: as §1
To determine the binding affinity of the investigated compounds, competitive cell binding studies were performed with ^68Ga-labeled PSMA-10. Dilution series of twelve concentrations in medium were prepared from the precursor peptides PS1 - PS11 including concentrations of 0, 0.5, 1, 2.5, 5, 10, 25, 50, 100, 500, 1,000, and 5,000 nM. The assay was performed on 96-well filter plates (Merck, Darmstadt, Germany). Medium (100 µl per well) was added before the experiment and incubated for 1 h at room temperature to block non-specific binding. The medium was removed and the diluted compounds were incubated with [^68Ga]Ga-PSMA-10 (0.8 nM) and LNCaP cells (10^5 cells/well) for 45 min at room temperature (total volume 100 µl/well). Cells were washed with PBS buffer (2× 100 µl, 1× 200 µl) over a MultiScreen 96-well vacuum filtration system (Merck Millipore, Billerica, USA). The filters containing the retained cells were punched out and the radioactivity was quantified using a γ-counter. By applying a non-linear regression algorithm (GraphPad Prism 8.0.1., Boston, USA), the specific inhibitory concentration of 50% (IC50) could be determined. The experiment was repeated at least three times per compound and the data presented as IC50 ± standard deviation.

The subject of series [5] is LNCaP xenograft-bearing BALB/c nu/nu mice. The series can be described thus: Static small-animal PET imaging 1 h and 2 h p.i. Particulars: 68Ga-labeled, 0.5 nmol i.v., n = 1, SD from VOIs.
Series [6] is described as follows: in vitro. It counts as in vitro ADME. Conditions: mouse, serum. Here is the method: Incubation in human and murine serum (BioIVT, United Kingdom) was used to determine the stability of the described precursors. First, the substances were labeled with [^177Lu]Lu^3+ and added to 100 µl of pre-warmed serum (0.5 nmol, 3 - 10 MBq). The reaction mixture was incubated at 37 °C and 10 µl samples were taken at regular intervals (0, 6, 24, 48, 72 h). After precipitation of the proteins by the addition of 30 µl of acetonitrile, the probes were centrifuged for 2 min at 14,000 rpm and the stability determined by analytical radio-HPLC of the […].

A short description of series [7]: in vivo. Conditions: male, BALB/c nu/nu, mouse, iv, 500 pmol, total radioactivity. The source holds these as a separate data set.

T1 sequence (Q04609 whole entry): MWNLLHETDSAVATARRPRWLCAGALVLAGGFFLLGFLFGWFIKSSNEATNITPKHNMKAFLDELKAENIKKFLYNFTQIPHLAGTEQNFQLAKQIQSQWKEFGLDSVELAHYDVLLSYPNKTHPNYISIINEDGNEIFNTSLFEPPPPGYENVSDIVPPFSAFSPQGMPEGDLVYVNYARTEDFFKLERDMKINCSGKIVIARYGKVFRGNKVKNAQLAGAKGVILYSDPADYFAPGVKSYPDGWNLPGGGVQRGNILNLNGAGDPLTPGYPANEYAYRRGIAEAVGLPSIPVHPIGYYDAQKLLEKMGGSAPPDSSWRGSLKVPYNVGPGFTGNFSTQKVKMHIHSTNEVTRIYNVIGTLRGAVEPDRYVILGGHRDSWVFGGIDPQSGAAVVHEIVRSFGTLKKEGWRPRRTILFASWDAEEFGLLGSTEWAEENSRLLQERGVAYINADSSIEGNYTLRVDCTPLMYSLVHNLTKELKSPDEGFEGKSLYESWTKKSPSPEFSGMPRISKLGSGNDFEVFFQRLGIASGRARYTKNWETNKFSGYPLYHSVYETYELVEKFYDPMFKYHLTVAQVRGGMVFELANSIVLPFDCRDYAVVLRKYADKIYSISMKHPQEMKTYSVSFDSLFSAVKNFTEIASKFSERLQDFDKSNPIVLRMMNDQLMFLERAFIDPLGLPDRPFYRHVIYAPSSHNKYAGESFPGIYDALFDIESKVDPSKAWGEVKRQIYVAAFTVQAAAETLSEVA

As a reminder, the IC50 is the concentration needed to halve the response being measured. A high value points to a need for much substance. Turning to `O=C(O)CC[C@H](NC(=O)N[C@@H](CCCCNC(=O)[C@H](Cc1ccc2ccccc2c1)NC(=O)[C@H]1CC[C@H](CNC(=O)[C@H](Cc2c[nH]cn2)NC(=O)[C@H](CCC(=O)O)NC(=O)[C@H](Cc2c[nH]cn2)NC(=O)[C@H](CCC(=O)O)NC(=O)[C@H](Cc2c[nH]cn2)NC(=O)[C@H](CCC(=O)O)NC(=O)CN2CCN(CC(=O)O)CCN(CC(=O)O)CCN(CC(=O)O)CC2)CC1)C(=O)O)C(=O)O` [PS3, EuK-NaI-ChX-(HE)3-DOTA] ({DOTA}-EHEHEH[Trx][2Nal]-EuK), in series [1], the “Internalization Block” value is given as 0.112 ± 0.022 %Binding / %Internalization, the “Surface Binding Block” value is reported as 0.069 ± 0.129 %Binding / %Internalization, the Internalization was 0.67 ± 0.14 %Binding / %Internalization and the “Surface Binding” value was 1.32 ± 0.11 %Binding / %Internalization. Further, in series [1], the “Specific Internalization” value is on record as 0.56 ± 0.42 %Binding / %Internalization and the “Specific Surface Binding” value is 1.26 ± 1.97 %Binding / %Internalization. Further, in series [2] (SUV kidneys), the SUV at 1 h stood at 3.05 ± 0.01 SUV and the SUV at 2 h was determined as 1.56 ± 0.13 SUV. Further, in series [2] (SUV muscle), the SUV at 1 h was determined as 0.13 ± 0.03 SUV and the SUV at 2 h was found to be 0.1 ± 0.01 SUV. Further, in series [2] (SUV tumor), the SUV at 1 h amounted to 0.93 ± 0.08 SUV and the SUV at 2 h turned out to be 0.92 ± 0.06 SUV. Also, in series [3], the logD is -3.6 ± 0.3. The IC50 in series [4] worked out at 37 ± 11.4 nM.
Consider `O=C(O)CC[C@H](NC(=O)N[C@@H](CCCCNC(=O)[C@H](Cc1ccc2ccccc2c1)NC(=O)[C@H]1CC[C@H](CNC(=O)[C@H](Cc2c[nH]cn2)NC(=O)[C@H](CCC(=O)O)NC(=O)[C@H](Cc2c[nH]cn2)NC(=O)[C@H](CCC(=O)O)NC(=O)[C@H](Cc2c[nH]cn2)NC(=O)[C@H](CCC(=O)O)NC(=O)[C@H](Cc2c[nH]cn2)NC(=O)[C@H](CCC(=O)O)NC(=O)CN2CCN(CC(=O)O)CCN(CC(=O)O)CCN(CC(=O)O)CC2)CC1)C(=O)O)C(=O)O` [PS5, EuK-NaI-ChX-(HE)4-DOTA] ({DOTA}-EHEHEHEH[Trx][2Nal]-EuK), for which, in series [1], the “Internalization Block” value was 0.155 ± 0.022 %Binding / %Internalization, the “Surface Binding Block” value is 0.082 ± 0.029 %Binding / %Internalization, the Internalization is 0.67 ± 0.06 %Binding / %Internalization and the “Surface Binding” value is 1.41 ± 0.10 %Binding / %Internalization. Besides, in series [1], the “Specific Internalization” value is reported as 0.51 ± 0.25 %Binding / %Internalization and the “Specific Surface Binding” value is 1.33 ± 0.42 %Binding / %Internalization. Further, in series [2] (SUV kidneys), the SUV at 1 h came out at 3.13 ± 0.16 SUV and the SUV at 2 h was determined as 2.37 ± 0.27 SUV. In addition, in series [2] (SUV muscle), the SUV at 1 h came out at 0.12 ± 0.02 SUV and the SUV at 2 h came to 0.09 ± 0.02 SUV. In series [2] (SUV tumor), the SUV at 1 h is 0.86 ± 0.06 SUV and the SUV at 2 h was 0.94 ± 0.07 SUV. The logD in series [3] was -3.74 ± 0.05. In series [4], this molecule displayed an IC50 of 46.7 ± 37.3 nM.
As to `O=C(O)CC[C@H](NC(=O)N[C@@H](CCCCNC(=O)[C@H](Cc1ccc2ccccc2c1)NC(=O)[C@H]1CC[C@H](CNC(=O)CN2CCN(CC(=O)O)CCN(CC(=O)O)CCN(CC(=O)O)CC2)CC1)C(=O)O)C(=O)O` [PSMA-617, EuK-NaI-ChX-DOTA], in series [1], the “Internalization Block” value is given as 0.210 ± 0.036 %Binding / %Internalization, the “Surface Binding Block” value was 0.062 ± 0.013 %Binding / %Internalization, the Internalization is given as 0.50 ± 0.05 %Binding / %Internalization and the “Surface Binding” value is recorded as 0.79 ± 0.13 %Binding / %Internalization. In series [1], the “Specific Internalization” value was 0.28 ± 0.27 %Binding / %Internalization and the “Specific Surface Binding” value is recorded as 0.72 ± 0.38 %Binding / %Internalization. Also, the “Partition Coefficient [logDoctanol/PBS]” value in series [3] is reported as -2.7 ± 0.2. In series [5] (static PET 1 h p.i.), this molecule showed an SUV kidneys of 1.25 ± 0.14 g/mL, an SUV muscle of 0.073 ± 0.004 g/mL and an SUV tumor of 0.63 ± 0.02 g/mL. In series [5] (static PET 2 h p.i.), this molecule gave an SUV kidneys of 0.28 ± 0.06 g/mL, an SUV muscle of 0.02 ± 0.01 g/mL and an SUV tumor of 0.52 ± 0.16 g/mL. In series [4], this molecule gave a concentration for half-maximal inhibition (IC50) of 21.8 ± 3.13 nM.
In turn, `O=C(O)CC[C@H](NC(=O)N[C@@H](CCCCNC(=O)[C@H](Cc1c[nH]cn1)NC(=O)[C@H](Cc1c[nH]cn1)NC(=O)[C@H](Cc1c[nH]cn1)NC(=O)[C@H](Cc1ccc2ccccc2c1)NC(=O)[C@H]1CC[C@H](CNC(=O)CN2CCN(CC(=O)O)CCN(CC(=O)O)CCN(CC(=O)O)CC2)CC1)C(=O)O)C(=O)O` [[^177Lu]Lu-PS9, metal not drawn] ({DOTA-Trx}-[2Nal]HHH-EuK) came in with a metabolised at 24 h, 5 µM in series [6] of approximately 40%.
As a reminder, the fraction remaining is the share of the starting amount still present when the sample was taken. Low readings indicate more turnover, high ones less turnover. Molecule `O=C(O)CC[C@H](NC(=O)N[C@@H](CCCCNC(=O)[C@H](Cc1ccc2ccccc2c1)NC(=O)[C@H](Cc1c[nH]cn1)NC(=O)[C@H](Cc1c[nH]cn1)NC(=O)[C@H](Cc1c[nH]cn1)NC(=O)[C@H]1CC[C@H](CNC(=O)CN2CCN(CC(=O)O)CCN(CC(=O)O)CCN(CC(=O)O)CC2)CC1)C(=O)O)C(=O)O` [[^177Lu]Lu-PS10, metal not drawn] ({DOTA-Trx}-HHH[2Nal]-EuK) had a fraction remaining at 48 h, 5 µM in series [6] of 64%.
On to `O=C(O)CC[C@H](NC(=O)N[C@@H](CCCCNC(=O)[C@H](Cc1ccc2ccccc2c1)NC(=O)[C@H]1CC[C@H](CNC(=O)[C@H](Cc2c[nH]cn2)NC(=O)[C@H](Cc2c[nH]cn2)NC(=O)[C@H](Cc2c[nH]cn2)NC(=O)CN2CCN(CC(=O)O)CCN(CC(=O)O)CCN(CC(=O)O)CC2)CC1)C(=O)O)C(=O)O` [[^68Ga]Ga-PS11, metal not drawn] ({DOTA}-HHH[Trx][2Nal]-EuK), for which the tissue to tissue ratio at 1 h in series [2] came to 0.66 ± 0.15; in series [7] it was 0.633. In addition, in series [2], the tissue to tissue ratio at 2 h turned out to be 1.15 ± 0.27.
For `O=C(O)CC[C@H](NC(=O)N[C@@H](CCCCNC(=O)[C@H](Cc1ccc2ccccc2c1)NC(=O)[C@H]1CC[C@H](CNC(=O)[C@H](CCC(=O)O)NC(=O)[C@H](CCC(=O)O)NC(=O)[C@H](CCC(=O)O)NC(=O)CN2CCN(CC(=O)O)CCN(CC(=O)O)CCN(CC(=O)O)CC2)CC1)C(=O)O)C(=O)O` [[^68Ga]Ga-PS8, metal not drawn] ({DOTA}-EEE[Trx][2Nal]-EuK), in series [2], the tissue to tissue ratio at 1 h stood at 16.2 ± 0.27. In series [7], the SUV at 1 h was 1.17 SUV.
